# Read-outs that look alike come from different tables or passages of the source.
# Tests used:
# [1] = target: T1, human recombinant α1a adrenoceptor (Homo sapiens, UniProt P35348); assay: Radioligand binding ([3H]prazosin) on membranes of CHO cells expressing cloned α1a adrenoceptor; conditions: read-out: Affinity (Ki) α1a
# T1 construct: expressed in transfected cells; host or cells: CHO cells (membranes)
# T1 sequence (P35348 1-466): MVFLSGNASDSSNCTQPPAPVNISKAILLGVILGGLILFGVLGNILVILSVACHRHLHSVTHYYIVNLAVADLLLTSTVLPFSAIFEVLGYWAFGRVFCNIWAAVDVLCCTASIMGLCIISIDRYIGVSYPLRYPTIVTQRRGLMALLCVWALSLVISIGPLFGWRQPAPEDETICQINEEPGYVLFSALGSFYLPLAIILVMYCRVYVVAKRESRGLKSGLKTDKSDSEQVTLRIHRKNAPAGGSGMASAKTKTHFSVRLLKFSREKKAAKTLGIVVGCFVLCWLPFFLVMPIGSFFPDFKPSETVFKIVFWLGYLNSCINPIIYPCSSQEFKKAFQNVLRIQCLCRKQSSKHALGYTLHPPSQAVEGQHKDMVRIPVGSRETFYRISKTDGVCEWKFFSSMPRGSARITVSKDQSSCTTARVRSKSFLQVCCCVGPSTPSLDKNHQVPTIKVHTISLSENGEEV
# Procedure: The determination of affinity for cloned subtypes of human α1 adrenergic receptors was performed in membranes from CHO cells (chinese hamster ovary cells) transfected by electroporation with DNA expressing the genes encoding each α1-adrenoceptor subtype, namely α1a, α1b and α1d.. Cloning and stable expression of the human α1-adrenoceptor gene were performed as previously described (Testa et al., Pharmacol. Comm. 6, 79-86 (1995)). CHO cell membranes were incubated in […] Tris pH 7.4 with 0.2 nM [^3H]prazosin, in a final volume of 1.02 ml for 30 minutes at 25°C, in the absence or presence of competing drugs (1 pM-10 µM). Non-specific binding was determined in the presence of 10 µM phentolamine. Incubation was stopped by addition of ice-cold Tris buffer and rapid filtration through 0.2% polyethyleneimine pretreated Schleicher & Schuell GF52 filters. […] The HeLa cells were grown as monolayers in Dulbecco's modified Eagle's medium (DMEM), supplemented with 10% foetal calf serum and gentamicin (100 µg/ml), 5% CO2, at 37°C. The cells were detached from the growth flask at 95% confluence by a cell scraper and were lysed in ice-cold 5 mM Tris and 5-mM EDTA buffer (pH 7.4). The homogenates were centrifuged at 40000 x g x 20 minutes and the membranes were re-suspended in a small volume of ice-cold 5 mM Tris and 5-mM EDTA buffer (pH 7.4) and immediately frozen and stored at -70°C until use. On the experiment day, the cell membranes were re-suspended in a buffer containing 50 mM Tris (pH 7.4), 2.5 mM MgCl2, 10 µM pargyline (Fargin et al., Nature 335, 358-360 (1988)). […] The incubation was stopped by addition of ice-cold Tris buffer and rapid filtration through 0.2%-polyethyleneimine-pretreated Schleicher & Schuell filters. The inhibition of specific binding of the radioligands by the drugs was analysed to estimate the IC50 value by using the non-linear curve-fitting programme Allfit (De Lean et al., Am. J. Physiol. 235, E97-E102 (1978)). The IC50 value was converted to an affinity constant (Ki) by the equation of Cheng & Prusoff (Biochem. Pharmacol. 22, 3099-3108 (1973)). Data were expressed as mean of Ki.
# [2] = target: T2, human 5-HT1A-serotoninergic receptor (Homo sapiens, UniProt P08908); assay: Radioligand binding ([3H]8-OH-DPAT) on membranes of HeLa cells expressing cloned 5-HT1A receptor; conditions: read-out: Affinity (Ki) 5-HT1A
# T2 construct: expressed in transfected cells; host or cells: HeLa cells (membranes)
# T2 sequence (P08908 1-422): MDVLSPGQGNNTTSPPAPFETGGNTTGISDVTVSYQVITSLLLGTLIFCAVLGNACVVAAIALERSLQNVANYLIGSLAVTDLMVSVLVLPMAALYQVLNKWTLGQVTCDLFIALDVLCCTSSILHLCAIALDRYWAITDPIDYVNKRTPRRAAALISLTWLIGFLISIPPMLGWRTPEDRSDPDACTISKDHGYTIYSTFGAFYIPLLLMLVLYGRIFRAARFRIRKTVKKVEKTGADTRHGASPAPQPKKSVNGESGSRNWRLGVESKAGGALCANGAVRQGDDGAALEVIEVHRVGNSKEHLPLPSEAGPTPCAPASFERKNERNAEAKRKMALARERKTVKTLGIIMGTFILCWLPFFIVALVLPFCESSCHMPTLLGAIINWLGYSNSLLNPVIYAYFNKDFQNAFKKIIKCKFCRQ
# Procedure: The determination of affinity for cloned subtypes of human α1 adrenergic receptors was performed in membranes from CHO cells (chinese hamster ovary cells) transfected by electroporation with DNA expressing the genes encoding each α1-adrenoceptor subtype, namely α1a, α1b and α1d.. Cloning and stable expression of the human α1-adrenoceptor gene were performed as previously described (Testa et al., Pharmacol. Comm. 6, 79-86 (1995)). CHO cell membranes were incubated in […] Tris pH 7.4 with 0.2 nM [^3H]prazosin, in a final volume of 1.02 ml for 30 minutes at 25°C, in the absence or presence of competing drugs (1 pM-10 µM). Non-specific binding was determined in the presence of 10 µM phentolamine. Incubation was stopped by addition of ice-cold Tris buffer and rapid filtration through 0.2% polyethyleneimine pretreated Schleicher & Schuell GF52 filters. Genomic clone G-21 coding for the human 5-HT1A-serotoninergic receptor was stably transfected in a human cell line (HeLa) (Fargin et al., J. Biol. Chem. 284, 14848-14852 (1989)). The HeLa cells were grown as monolayers in Dulbecco's modified Eagle's medium (DMEM), supplemented with 10% foetal calf serum and gentamicin (100 µg/ml), 5% CO2, at 37°C. The cells were detached from the growth flask at 95% confluence by a cell scraper and were lysed in ice-cold 5 mM Tris and 5-mM EDTA buffer (pH 7.4). The homogenates were centrifuged at 40000 x g x 20 minutes and the membranes were re-suspended in a small volume of ice-cold 5 mM Tris and 5-mM EDTA buffer (pH 7.4) and immediately frozen and stored at -70°C until use. On the experiment day, the cell membranes were re-suspended in a buffer containing 50 mM Tris (pH 7.4), 2.5 mM MgCl2, 10 µM pargyline (Fargin et al., Nature 335, 358-360 (1988)). […] The incubation was stopped by addition of ice-cold Tris buffer and rapid filtration through 0.2%-polyethyleneimine-pretreated Schleicher & Schuell filters. The inhibition of specific binding of the radioligands by the drugs was analysed to estimate the IC50 value by using the non-linear curve-fitting programme Allfit (De Lean et al., Am. J. Physiol. 235, E97-E102 (1978)). The IC50 value was converted to an affinity constant (Ki) by the equation of Cheng & Prusoff (Biochem. Pharmacol. 22, 3099-3108 (1973)). Data were expressed as mean of Ki.
# [3] = human cloned receptor, CHO cell membranes, 0.2 nM [3H]prazosin
# [4] = human cloned receptor, HeLa cell membranes, 1.2 nM [3H]8-OH-DPAT
SMILES,"Ki [1, 3]","Ki [2, 4]",Ki [2],Ki [1]
"Cc1ccc(F)c(N2CCN(CCN3C(=O)CC4(CCCC4)CC3=O)CC2)c1 [Example 4, 8-{2-[4-(2-Fluoro-5-methylphenyl)-1-piperazinyl]-ethyl}-8-azaspiro[4.5]decane-7,9-dione]",> 1000 nM,52.3 nM,–,–
"O=C1CC2(CCCC2)CC(=O)N1CCN1CCN(c2cc(Br)ccc2Br)CC1 [Example 7, 8-{2-[4-(2,5-Dibromophenyl)-1-piperazinyl]-ethyl}-8-azaspiro[4.5]decane-7,9-dione]",114 nM,62.2 nM,–,–
"O=C1CCCC(=O)N1CCN1CCN(c2cc(Cl)ccc2Cl)CC1 [Example 2, 1-{2-[4-(2,5-Dichlorophenyl)-1-piperazinyl]-ethyl}-piperidinyl-2,6-dione]",77.9 nM,258 nM,–,–
"CCC1(C)CC(=O)N(CCN2CCN(c3cc(Cl)ccc3Cl)CC2)C(=O)C1 [Example 13, 1-{2-[4-(2,5-Dichlorophenyl)-1-piperazinyl]-ethyl}-4-ethyl-4-methylpiperidinyl-2,6-dione]",59.8 nM,104 nM,–,–
"CC(CN1CCN(c2cc(Cl)ccc2Cl)CC1)N1C(=O)CC2(CCCC2)CC1=O (centres unmarked) [Example 16, 8-{2-[4-(2,5-Dichlorophenyl)-1-piperazinyl]-1-methylethyl}-8-azaspiro[4.5]decane-7,9-dione]",187 nM,207 nM,–,–
"O=C1CC2(CCCC2)C(=O)N1CCN1CCN(c2cc(Cl)ccc2Cl)CC1 [Example 14, 2-{2-[4-(2,5-Dichlorophenyl)-1-piperazinyl]-ethyl}-2-azaspiro[4.4]nonane-1,3-dione]",68.3 nM,–,> 1000 nM,–
"O=C1CC2(CCCC2)CCN1CCN1CCN(c2cc(F)c(F)cc2F)CC1 [Example 24, 8-{2-[4-(2,4,5-Trifluorophenyl)-1-piperazinyl]-ethyl}-8-azaspiro[4.5]decane-7-one]",706 nM,–,214 nM,–
"O=C1CC2(C=CN1CCN1CCN(c3cc(Cl)ccc3Cl)CC1)CCCC2 [Example 20, 8-{2-[4-(2,5-Dichlorophenyl)-1-piperazinyl]-ethyl}-8-azaspiro[4.5]dec-9,10-en-7-one]",–,91.9 nM,–,27.2 nM
"O=C1CC2(CCCC2)CC(=O)N1CCN1CCC(c2cc(Cl)ccc2Cl)CC1 [Example 17, 8-{2-[4-(2,5-Dichlorophenyl)-1-piperidinyl]-ethyl}-8-azaspiro[4.5]decane-7,9-dione]",119 nM,248 nM,–,–
"CN(CCN1C(=O)CC2(CCCC2)CC1=O)CCN(C)c1cc(Cl)ccc1Cl [Example 18, N-(2,5-Dichlorophenyl)-N'-{2-(7,9-dioxo-8-azaspiro[4.5]decane-8-yl)-ethyl}-N,N'-dimethyl-1,2-diaminoethane]",786 nM,433 nM,–,–
"O=C1CC2(CCCC2)CC(=O)N1CCN1CCN(c2cc(C(F)(F)F)ccc2F)CC1 [Example 6, 8-{2-[4-(2-Fluoro-5-trifluoromethylphenyl)-1-piperazinyl]-ethyl}-8-azaspiro[4.5]decane-7,9-dione]",> 1000 nM,160 nM,–,–

# Now from value to compound, other results behind:
"Ki [1, 3]","Ki [2, 4]",Ki [2],SMILES,Ki [1]
108 nM,12.1 nM,–,"O=C1CC2(CCCC2)CC(=O)N1CCN1CCN(c2cc(F)ccc2Cl)CC1 [Example 9, 8-{2-[4-(2-Chloro-5-fluorophenyl)-1-piperazinyl]-ethyl}-8-azaspiro[4.5]decane-7,9-dione]",–
120 nM,–,> 1000 nM,"O=C1CC2(CCC2)CC(=O)N1CCN1CCN(c2cc(Cl)ccc2Cl)CC1 [Example 15, 7-{2-[4-(2,5-Dichlorophenyl)-1-piperazinyl]-ethyl}-7-azaspiro[3.5]nonane-6,8-dione]",–
119 nM,275 nM,–,"Cc1ccc(C)c(N2CCN(CCN3C(=O)CC4(CCCC4)CC3=O)CC2)c1 [Example 5, 8-{2-[4-(2,5-Dimethylphenyl)-1-piperazinyl]-ethyl}-8-azaspiro[4.5]decane-7,9-dione]",–
–,36 nM,–,"O=C1CC2(CCCC2)CC(=O)N1CCN1CCN(c2cc(Cl)ccc2Cl)CC1 [Example 1, 8-{2-[4-(2,5-Dichlorophenyl)-1-piperazinyl]-ethyl}-8-azaspiro[4.5]decane-7,9-dione]",–
503 nM,29.6 nM,–,"N#Cc1ccc(Cl)cc1N1CCN(CCN2C(=O)CC3(CCCC3)CC2=O)CC1 [Example 8, 8-{2-[4-(5-Chloro-2-cyanophenyl)-1-piperazinyl]-ethyl}-8-azaspiro[4.5]decane-7,9-dione]",–
479 nM,804 nM,–,"O=C1CC2(CCCC2)CC(=O)N1CCN1CCN(c2cc(I)ccc2Cl)CC1 [Example 10, 8-{2-[4-(2-Chloro-5-iodophenyl)-1-piperazinyl]-ethyl}-8-azaspiro[4.5]decane-7,9-dione]",–
331 nM,128 nM,–,"O=C1CC2(CCCCC2)CC(=O)N1CCN1CCN(c2cc(Cl)ccc2Cl)CC1 [Example 11, 3-{2-[4-(2,5-Dichlorophenyl)-1-piperazinyl]-ethyl}-3-azaspiro[5.5]undecane-2,4-dione]",–
